According to patent publication US10400008B2, “Modulators of the SRC-kinase activity for preventing or treating metastatic cancer” (Cancer Research Technology Limited, priority 2013, dated 2019):
Values joined by “and” are separate entries in the source; they are usually repeats but may differ in a detail not shown here. Identical values can stand only once.

Experiments:
HT1080 cells = test: Migration in Trans-well filters and wound healing of HT1080 cells; type: cell-based, human; settings: 6 h, peptide 1 nM
Procedure: (§1) FIG. 4: The S1 peptide inhibits EGF-stimulated migration and MMP-9 secretion in HT1080 cells. Quiescent HT1080 cells were used. In A, cells were left untreated or treated for 6 h with the indicated compounds. MMP-9 release was assayed as described in Methods. In B, cells were allowed to migrate for 6 h in Trans-well filters in the absence or presence of the indicated compounds. Migrated cells were stained and counted as reported in Methods. In A and B, data were expressed as relative increase. Mean and SEM is shown. n represents the number of experiments. In C, cells were wounded and then left unstimulated or stimulated for 6 h with the indicated compounds. Contrast-phase images are representative of 3 different experiments, each performed in duplicate.
(§2) BrdU incorporation, migration and wound healing analysis were done as described (3, 11). MMP-9 activity was assayed (12, 13), using the fluorescent AK411 kit (BIOMOL Res. Lab.).

[1] = system: offspring from dosed females; settings: mouse, in vivo
Description: Offspring from dosed females were mated and checked for fertility to determine possible inheritable effects.

MMP-9 = MMP-9 release from HT1080 cells (fluorescent AK411 kit); type: cell-based, human; settings: 6 h, peptide 1 nM
Procedure: as §1, §2

[2] = Body weight in the orthotopic PC-3 prostate cancer model
Procedure: Mice were weighed twice a week, and after 4 weeks, mice were sacrificed. Gross necropsy was performed to all animals at the end of the study, and all macroscopic signs were recorded. Volume of the prostate tumors was measured and prostate as well as prostate draining lymph nodes were collected for histology. The number of metastasis in lymph nodes was determined under microscope.
The animals were weighed twice a week. For the last 5 days of the study, the animals were observed daily to monitor the progression of disease. Appearance of any clinical signs was recorded on follow-up forms. Analgesic was given if needed.
At the end of the study, the animals were weighed and sacrificed with cervical dislocation under anesthesia. Necropsy was carried out in all animals. Macroscopic findings were recorded on the follow-up forms. Tissue samples from prostate with tumor and lymph nodes were collected for histology and number of metastases in lymph nodes was determined.
Statistical analysis was performed with R: A Language and Environment for Statistical Computing (version 2.14.2; R Development Core Team, Vienna, Austria). The mean and standard deviation of the body weights and the tumor volumes at sacrifice were determined. Normality of the distributions and homogeneity of variance were checked before further analyses. In case of violating these assumptions, either log transformation or other appropriate transformation (e.g. square root, reciprocal) was applied. If the assumptions were fulfilled as such or after transformation, one-way ANOVA was used to study if the values obtained between the groups were statistically different (with p<0.05). If differences were found, Tukey's HSD test was used for pairwise comparison between all groups. If the assumptions were not fulfilled even after the transformations described above, the non-parametric Kruskal-Wallis test followed by Mann-Whitney U-test were used.
We have studied the effects of Val201 on cell proliferation of the ER positive human prostate cancer cell line PC-3 in vitro and growth and metastatis in vivo in an orthotopic xenograft model. The proliferation effects were studied for 100 pM, 1 nM, 10 nM, 100 nM and 1 μM concentrations of VAL201 by measuring WST-1 values at days 3, 5, 7 and 9. Groups with vehicle and 1 μM gemcitabine as reference compound were included in the study. […] PC-3 cells in Matrigel were inoculated orthotopically into the prostate. Subcutaneous dosing was started at day 1 and continued daily for 28 days. The mice were weighed twice a week. Orthotopic tumors were measured by calliper and the prostate and the regional lymph nodes were harvested at sacrifice. Metastases in lymph nodes were determined from HE stained paraffin sections.

endometriosis lesion = test: In-vivo model of endometriosis (K-ras transgenic donor tissue in wild-type animals), first study; set-up: species or system mice; settings: injected for 21 days, four treated animals
Procedure: In a first study, a total of 4 treatment and 5 control animals were generated in a novel in-vivo model of endometriosis (Research Horizons, University of Cambridge, 2009 Issue 8, GB 0715635.9) K-rasV12/Ah-Cre transgenic mice were crossed with Rosa26R mice to generate KrasV12+/−/Ah-Cre+/−/ROSA26R-LacZ+/− transgenic mice. The F1 offspring were inbred to generate F2 K-rasV12+/−/Ah-Cre+/+/ROSA26R-LacZ+/+ transgenic mice. The presence of the transgenes was determined by PCR using gene specific primers for K-ras, Cre and Rosa26R-LacZ. Tissue was collected from donor animals previously treated with hormones etc. and was divided between wild-type animals that were then injected with drug or vehicle for 21 days.

[3] = system: plugs of uterine tissue (endometriosis lesions); test: Dose ranging prevention study: lesion burden, growth and establishment of transplanted uterine tissue plugs; type: in vivo, C57BL6 mice; settings: for Lesion establishment, single plug (P1-P4, M1, M2): 1 or 0 per plug, individual mouse; for Lesion establishment, single plug (P1-P4, M1, M2) / Lesion burden, Ave / Lesion growth, Ave / Lesion burden, Mean / Lesion establishment, Mean / Lesion growth, Mean / Lesion burden, single plug (P1-P6) / Lesion growth, single plug (P1-P4, M1, M2) / Lesion establishment, Ave: prevention; for Lesion burden, Ave / Lesion growth, Ave: average per mouse; for lesion burden / lesion growth: control 7.18; for Lesion burden, Mean / Lesion establishment, Mean / Lesion growth, Mean: group mean; for Lesion burden, single plug (P1-P6) / Lesion growth, single plug (P1-P4, M1, M2): individual mouse and plug; for Lesion establishment, Ave: per mouse
[4] = 1 ng/mouse s.c. daily, listed as ValiRx1
[5] = 10 ng/mouse s.c. daily, listed as ValiRx1
[6] = 100 ng/mouse s.c. daily, listed as ValiRx1
[7] = first of three dose groups (1 ng, 10 ng, 100 ng daily s.c.)
[8] = second of three dose groups (1 ng, 10 ng, 100 ng daily s.c.)
[9] = third of three dose groups (1 ng, 10 ng, 100 ng daily s.c.)

Substance: Ac-PPPHPHARIK-NH2 [VAL001]
- EGF-increased motility (HT1080 cells): inhibited at a similar extent
- fertility of offspring from dosed females [1]: no abnormalities noted
- EGF-stimulated MMP-9 secretion (MMP-9): inhibits
- Body weight at sacrifice relative to maximum weight ([2]; 0.004 mg/kg, mean): 96.6
- Body weight at sacrifice relative to maximum weight ([2]; 0.004 mg/kg, single animals): 95.1 (2×) and 100.0 and 93.8 and 95.7 and 97.9 and 94.1 and 97.8 and 97.6 and 99.2
- Body weight at sacrifice relative to maximum weight ([2]; 0.04 mg/kg, mean): 96.1
- Body weight at sacrifice relative to maximum weight ([2]; 0.04 mg/kg, single animals): 100.0 and 96.1 and 94.9 and 96.7 and 93.8 and 93.0 and 94.8 and 98.0 (2×) and 96.2
- Body weight at sacrifice relative to maximum weight ([2]; 0.4 mg/kg, mean): 97.6
- Body weight at sacrifice relative to maximum weight ([2]; 0.4 mg/kg, single animals): 98.2 and 91.1 and 96.6 and 90.7 and 100.0 (4×) and 99.5 and 99.6
- Body weight at sacrifice relative to maximum weight ([2]; 4 mg/kg, mean): 95.3
- Body weight at sacrifice relative to maximum weight ([2]; 4 mg/kg, single animals): 100.0 and 90.8 and 86.2 and 95.7 and 96.8 and 95.5 and 98.2 and 98.4 and 98.0 and 93.3
- absence of lesion following treatment (endometriosis lesion): three showed complete absence of lesion
- Lesion establishment, single plug (P1-P4, M1, M2) [3, 4]: 1 (29×) and 0
- Lesion establishment, single plug (P1-P4, M1, M2) [3, 5]: 1 (29×) and 0
- Lesion establishment, single plug (P1-P4, M1, M2) ([3]; 100 ng/mouse s.c. daily): 1
- Lesion burden, Ave [3, 4]: 6.5 mm^2 and 8.5 mm^2 and 1.1 mm^2 and 1.9 mm^2 and 12.1 mm^2
- Lesion growth, Ave [3, 4]: 6.5 mm^2 and 8.5 mm^2 and 1.3 mm^2 and 1.9 mm^2 and 12.1 mm^2
- Lesion burden, Ave [3, 5]: 2.9 mm^2 and 6.7 mm^2 and 11.3 mm^2 and 3.3 mm^2 and 3.5 mm^2
- Lesion growth, Ave [3, 5]: 2.9 mm^2 and 6.7 mm^2 and 11.3 mm^2 and 3.3 mm^2 and 4.2 mm^2
- Lesion burden, Ave [3, 6]: 11.8 mm^2 and 1.8 mm^2 and 3.2 mm^2 and 3.0 mm^2 and 2.9 mm^2
- Lesion growth, Ave [3, 6]: 11.8 mm^2 and 1.8 mm^2 and 3.2 mm^2 and 3.0 mm^2 and 2.9 mm^2
- lesion growth following treatment ([3]; daily 1 ng, 10 ng or 100 ng s.c., dosed group vs control): significantly reduced
- lesion burden [3, 7]: 6.02 mm^2
- lesion growth [3, 7]: 6.23 mm^2
- Lesion burden, Mean ([3]; 1 ng/mouse s.c. daily): 6.02 mm^2
- Lesion establishment, Mean ([3]; 1 ng/mouse s.c. daily): 96.67%
- Lesion growth, Mean ([3]; 1 ng/mouse s.c. daily): 6.23 mm^2
- Lesion burden, Mean ([3]; 10 ng/mouse s.c. daily): 5.53 mm^2
- Lesion establishment, Mean ([3]; 10 ng/mouse s.c. daily): 96.67%
- Lesion growth, Mean ([3]; 10 ng/mouse s.c. daily): 5.72 mm^2
- Lesion burden, Mean ([3]; 100 ng/mouse s.c. daily): 4.52 mm^2
- Lesion establishment, Mean ([3]; 100 ng/mouse s.c. daily): 100.00%
- Lesion growth, Mean ([3]; 100 ng/mouse s.c. daily): 4.52 mm^2
- Lesion burden, single plug (P1-P6) [3, 4]: 1.1 mm^2 (3×) and 3.1 mm^2 and 2.5 mm^2 and 4.2 mm^2 and 16.7 mm^2 and 15.2 mm^2 and 3.8 mm^2 (2×) and 0.2 mm^2 (3×) and 6.2 mm^2 and 0.5 mm^2 and 9.4 mm^2 and 0.0 mm^2 and 3.5 mm^2 (2×) and 17.0 mm^2 and 11.2 mm^2 and 8.0 mm^2 (2×) and 15.1 mm^2 and 5.7 mm^2 and 10.2 mm^2 and 10.6 mm^2 and 16.6 mm^2 and 1.8 mm^2 and 0.1 mm^2
- Lesion growth, single plug (P1-P4, M1, M2) [3, 4]: 1.131 mm^2 (3×) and 3.142 mm^2 and 2.545 mm^2 and 4.155 mm^2 and 16.74 mm^2 and 15.21 mm^2 and 3.801 mm^2 (2×) and 0.196 mm^2 (3×) and 6.158 mm^2 and 0.503 mm^2 and 9.425 mm^2 and 3.456 mm^2 and 3.464 mm^2 and 16.96 mm^2 and 11.2 mm^2 and 8.042 mm^2 (2×) and 15.1 mm^2 and 5.694 mm^2 and 10.18 mm^2 and 10.56 mm^2 and 16.62 mm^2 and 1.767 mm^2 and 0.126 mm^2
- Lesion burden, single plug (P1-P6) [3, 5]: 1.0 mm^2 (3×) and 3.5 mm^2 (5×) and 10.9 mm^2 and 7.3 mm^2 and 10.0 mm^2 and 4.5 mm^2 (2×) and 12.6 mm^2 and 7.0 mm^2 and 9.6 mm^2 and 3.1 mm^2 (2×) and 1.1 mm^2 and 2.5 mm^2 and 0.2 mm^2 and 6.7 mm^2 and 7.1 mm^2 and 5.4 mm^2 and 21.1 mm^2 and 12.1 mm^2 and 3.0 mm^2 and 0.0 mm^2 and 4.0 mm^2 and 9.7 mm^2
- Lesion growth, single plug (P1-P4, M1, M2) [3, 5]: 0.95 mm^2 (3×) and 3.464 mm^2 (5×) and 10.95 mm^2 and 7.288 mm^2 and 10.02 mm^2 and 4.524 mm^2 (2×) and 12.57 mm^2 and 7.037 mm^2 and 9.621 mm^2 and 3.142 mm^2 (2×) and 1.131 mm^2 and 2.545 mm^2 and 0.196 mm^2 and 6.739 mm^2 and 7.069 mm^2 and 5.372 mm^2 and 21.11 mm^2 and 12.06 mm^2 and 2.969 mm^2 and 3.958 mm^2 and 9.66 mm^2
- Lesion burden, single plug (P1-P6) [3, 6]: 7.0 mm^2 and 18.5 mm^2 and 11.0 mm^2 and 4.5 mm^2 and 2.8 mm^2 (3×) and 2.3 mm^2 (3×) and 2.0 mm^2 (2×) and 3.1 mm^2 and 3.5 mm^2 (3×) and 1.5 mm^2 and 4.9 mm^2 and 8.4 mm^2 and 12.6 mm^2 and 13.2 mm^2 and 0.2 mm^2 and 1.0 mm^2 and 0.3 mm^2 (2×) and 3.8 mm^2 (2×) and 7.5 mm^2 and 2.5 mm^2 and 1.8 mm^2
- Lesion growth, single plug (P1-P4, M1, M2) [3, 6]: 7.037 mm^2 and 18.47 mm^2 and 11 mm^2 and 4.453 mm^2 and 2.827 mm^2 (2×) and 2.27 mm^2 (3×) and 2.011 mm^2 (2×) and 3.142 mm^2 and 3.464 mm^2 (3×) and 1.539 mm^2 and 4.909 mm^2 and 8.357 mm^2 and 12.57 mm^2 and 13.2 mm^2 and 0.196 mm^2 and 0.95 mm^2 and 0.283 mm^2 (2×) and 3.801 mm^2 (2×) and 7.548 mm^2 and 2.545 mm^2 and 2.835 mm^2 and 1.767 mm^2
- Lesion establishment, Ave [3, 4]: 100% (4×) and 83.33%
- Lesion establishment, Ave [3, 5]: 100% (4×) and 83.33%
- Lesion establishment, Ave ([3]; 100 ng/mouse s.c. daily): 100%
- lesion burden [3, 8]: 5.53 mm^2
- lesion growth [3, 8]: 5.72 mm^2
- lesion burden [3, 9]: 4.52 mm^2
- lesion growth [3, 9]: 4.52 mm^2
